Laboratory results published in patent US8546443B2, “Benzylic oxindole pyrimidines” (Boehringer Ingelheim International GmbH, priority 2010, dated 2013).

What was measured:
[1] = test system: TC-71 (Ewing's sarcoma) cells; assay: Cell proliferation assay, TC-71 (Alamar Blue); assay type: cell-based; conditions: 72 h with compound, EC50 ranges as class symbols
Description: Cell Proliferation Assays
Compounds were tested for their anti-proliferative effects in the TC-71 (Ewing's sarcoma) and HCT 116 (colorectal carcinoma) cancer cell lines in vitro. Published scientific data has described that interference with the Insulin-like Growth Factor-1 Receptor (IGF-1R) signaling pathway reduces the proliferation of TC-71 cells. Therefore TC-71 cells served as a positive control cell line for monitoring the activity of compounds against IGF-1R-mediated cell proliferation. […] Therefore the HCT 116 cell line served as a negative control.
2000 TC-71 cells or 1000 HCT 116 cells were seeded per well in 180 μL IMDM+10% foetal calf serum (FCS)+ penicillin/streptomycin into 96-well microtitre plates. The plates were placed in a cell culture incubator (37° C. in a humidified atmosphere of […]/5 CO2) overnight. The following day, serial dilutions of compounds, prepared in duplicates, were transferred onto the cell layers (controls without compound). The cells were cultivated for a further 72 h in the cell culture incubator. 20 μL of Alamar Blue™ (Serotec Ltd, Düsseldorf, Germany) was added to each well and the plates incubated for 7 h in the cell culture incubator. Fluorescence (extinction wavelength of 544 nm and emission at 590 nm) was then measured and the normalized data fitted by iterative calculation with a sigmoidal curve analysis program (Graph Pad Prism) with a variable Hill slope to determine the IC50 values.

[2] = molecular target: T1, cytoplasmic kinase domain of human IGF-1R (IGF-1R-GST) (Homo sapiens, UniProt P08069); assay: Insulin-like growth factor-1 receptor (IGF-1R) kinase assay (DELFIA); assay type: biochemical; conditions: IGF-1R-GST kinase activity, read-out: IGF1R IC50
T1 construct: cytoplasmic kinase domain of human IGF-1R (amino acids 964-1370); GST (glutathione-S-transferase); made in house; host or cells: High Five insect cells (Invitrogen)
T1 sequence (P08069 964-1367 limits assumed): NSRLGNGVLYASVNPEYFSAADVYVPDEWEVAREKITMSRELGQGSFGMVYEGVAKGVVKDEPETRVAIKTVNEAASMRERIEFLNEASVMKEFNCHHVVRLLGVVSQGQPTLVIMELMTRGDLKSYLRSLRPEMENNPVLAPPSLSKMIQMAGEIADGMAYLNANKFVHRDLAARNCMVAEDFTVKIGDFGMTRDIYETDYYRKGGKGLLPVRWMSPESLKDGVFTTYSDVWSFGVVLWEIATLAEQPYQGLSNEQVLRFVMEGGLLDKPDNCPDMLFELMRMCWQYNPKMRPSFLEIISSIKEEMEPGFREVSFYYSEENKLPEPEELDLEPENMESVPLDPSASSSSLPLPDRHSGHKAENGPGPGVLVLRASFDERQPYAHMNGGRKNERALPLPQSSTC
In short: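 GST-tagged IGF-1R cytoplasmic kinase domain phosphorylates pEY with biotinylated pEY for 40 min at RT; EDTA stop. Product captured on streptavidin, detected with europium anti-phosphotyrosine antibody by DELFIA time-resolved fluorescence; IC50 from inhibition curves.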

EC50 [1]	IC50 [2]	SMILES
< 50 nM	0.4 nM	Cc1cc(Nc2ncc(Cl)c(NCc3cccc4c3C(C)(C)C(=O)N4)n2)ccc1C1CCN(CC(C)(C)O)CC1 [Example I-334]
< 50 nM	3 nM	COc1cc(N2CCN(CC(C)(C)O)CC2)ccc1Nc1ncc(Cl)c(NCc2cccc3c2C(C)(C)C(=O)N3)n1 [Example I-335]
50 to 250 nM	4 nM	Cc1cc(N2CCN(CC(C)(C)O)CC2)ccc1Nc1ncc(Cl)c(NCc2cccc3c2C(C)(C)C(=O)N3)n1 [Example I-336]
250 to 3000 nM	9 nM	Cc1cc(Nc2ncc(Cl)c(NCc3cccc4c3C(C)(C)C(=O)N4)n2)c(F)cc1C1CCN(CC(C)(C)O)CC1 [Example I-337]
< 50 nM	2.1 nM	Cc1c(Nc2ncc(Cl)c(NCc3cccc4c3C(C)(C)C(=O)N4)n2)ccc(C2CCN(CC(C)(C)O)CC2)c1C [Example I-339]
50 to 250 nM	11 nM	CC(C)(O)CN1CCC(c2ccc(Nc3ncc(Cl)c(NCc4cccc5c4C(C)(C)C(=O)N5)n3)c(OC(F)(F)F)c2)CC1 [Example I-340]
< 50 nM	0.9 nM	CC(C)(O)CN1CCC(c2ccc(Nc3ncc(Cl)c(NCc4cccc5c4C(C)(C)C(=O)N5)n3)c3c2OCO3)CC1 [Example I-341]
< 50 nM	3 nM	CC(C)(O)CN1CCC(c2ccc(Nc3ncc(Cl)c(NCc4cccc5c4C(C)(C)C(=O)N5)n3)c(OC(F)F)c2)CC1 [Example I-342]
< 50 nM	0.8 nM	COCCN1CCC(c2ccc(Nc3ncc(C(F)(F)F)c(NCc4cccc5c4C(C)(C)C(=O)N5)n3)c(C)c2)CC1 [Example I-352]
< 50 nM	2 nM	COCCN1CCN(c2ccc(Nc3ncc(C(F)(F)F)c(NCc4cccc5c4C(C)(C)C(=O)N5)n3)c(OC)c2)CC1 [Example I-353]
250 to 3000 nM	0.5 nM	Cc1cc(C2CCN(CCO)CC2)ccc1Nc1ncc(C(F)(F)F)c(NCc2cccc3c2C(C)(C)C(=O)N3)n1 [Example I-355]
< 50 nM	0.3 nM	COCCN1CCC[C@@H](c2ccc(Nc3ncc(Br)c(NCc4cccc5c4C(C)(C)C(=O)N5)n3)c(C)c2)C1 [Example I-362]
50 to 250 nM	2 nM	COCCN1CCC[C@H](c2ccc(Nc3ncc(Br)c(NCc4cccc5c4C(C)(C)C(=O)N5)n3)c(C)c2)C1 [Example I-363]
< 50 nM	3 nM	CCc1cc(C2CCN(CCOC)CC2)ccc1Nc1ncc(Br)c(NCc2cccc3c2C(C)(C)C(=O)N3)n1 [Example I-367]
< 50 nM	2 nM	COCCN1CCN(c2ccc(Nc3ncc(Br)c(NCc4cccc5c4C(C)(C)C(=O)N5)n3)c(OC)c2)CC1 [Example I-369]
50 to 250 nM	11 nM	COc1cc(C2CCN(CC#N)CC2)ccc1Nc1ncc(Cl)c(NCc2cccc3c2C(C)(C)C(=O)N3)n1 [Example I-374]
< 50 nM	9 nM	Cc1cc(C2CCN(CC#N)CC2)ccc1Nc1ncc(Cl)c(NCc2cccc3c2C(C)(C)C(=O)N3)n1 [Example I-375]
< 50 nM	0.6 nM	COCCN1CCC(c2ccc(Nc3ncc(Cl)c(NCc4cccc5c4C(C)(C)C(=O)N5)n3)cc2C)CC1 [Example I-376]
< 50 nM	0.9 nM	Cc1cc(C2CCN(CC(C)(C)O)CC2)ccc1Nc1ncc(Cl)c(NCc2cccc3c2C(C)(C)C(=O)N3)n1 [Example I-377]
50 to 250 nM	6 nM	CCc1cc(C2CCN(CC(C)(C)O)CC2)ccc1Nc1ncc(Cl)c(NCc2cccc3c2C(C)(C)C(=O)N3)n1 [Example I-378]
50 to 250 nM	4 nM	CCc1cc(C2CCN(CCOC)CC2)ccc1Nc1ncc(Cl)c(NCc2cccc3c2C(C)(C)C(=O)N3)n1 [Example I-385]
< 50 nM	3 nM	COCCN1CCN(c2ccc(Nc3ncc(Cl)c(NCc4cccc5c4C(C)(C)C(=O)N5)n3)c(OC)c2)CC1 [Example I-386]
